Measured values as given in patent US6087355A, “Cephalosporin antibiotics” (Microcide Pharmaceuticals, Inc., priority 1996, dated 2000).
Counter-ions that a name gives are not always drawn.

Experiments:
E. coli ATCC 25992 = test: In vitro MIC, agar dilution; type: cell-based; details: for MIC: Escherichia coli, ATCC25992, read-out: minimum inhibitory concentration (MIC)
Summary of the method: (§1)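 Strains were spotted at roughly 10^4 cfu onto drug-containing Mueller-Hinton agar. MIC was read as the lowest inhibitory concentration after overnight incubation at 35-36 °C.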

S. aureus ATCC 29213 = test: In vitro MIC, agar dilution; type: cell-based; details: for MIC: Staphylococcus aureus, ATCC29213, read-out: minimum inhibitory concentration (MIC)
Summary of the method: as §1

[1] = test system: S. aureus Spain #356(Meth^R); test: In vitro MIC, agar dilution; type: cell-based; details: for MIC: Staphylococcus aureus, read-out: minimum inhibitory concentration (MIC)
Summary of the method: as §1

E. faecalis ATCC 29212 = test: In vitro MIC, agar dilution; type: cell-based; details: for MIC: Enterococcus faecalis, ATCC29212, read-out: minimum inhibitory concentration (MIC)
Summary of the method: as §1

E. faecium VanA(Van^R) = test: In vitro MIC, agar dilution; type: cell-based; details: for MIC: Enterococcus faecium, read-out: minimum inhibitory concentration (MIC)
Summary of the method: as §1

[2] = test system: S. aureus PC1(Meth^S)(lac^+); test: In vitro MIC, agar dilution; type: cell-based; details: for MIC: Staphylococcus aureus, read-out: minimum inhibitory concentration (MIC)
Summary of the method: as §1

[3] = test system: S. haemolyticus 05(Meth^R); test: In vitro MIC, agar dilution; type: cell-based; details: for MIC: Staphylococcus haemolyticus, read-out: minimum inhibitory concentration (MIC)
Summary of the method: as §1

E. faecium A491(Amp^R) = test: In vitro MIC, agar dilution; type: cell-based; details: for MIC: Enterococcus faecium, read-out: minimum inhibitory concentration (MIC)
Summary of the method: as §1

E. faecium ATCC 35667 = test: In vitro MIC, agar dilution; type: cell-based; details: for MIC: Enterococcus faecium, ATCC35667, read-out: minimum inhibitory concentration (MIC)
Summary of the method: as §1

[4] = test system: S. aureus ATCC 33593(Meth^R); test: In vitro MIC, agar dilution; type: cell-based; details: for MIC: Staphylococcus aureus, ATCC33593, read-out: minimum inhibitory concentration (MIC)
Summary of the method: as §1

[5] = test system: S. aureus 76(Meth^R)(lac^+); test: In vitro MIC, agar dilution; type: cell-based; details: for MIC: Staphylococcus aureus, read-out: minimum inhibitory concentration (MIC)
Summary of the method: as §1

E. faecalis VanB(Van^R) = test: In vitro MIC, agar dilution; type: cell-based; details: for MIC: Enterococcus faecalis, read-out: minimum inhibitory concentration (MIC)
Summary of the method: as §1

[6] = test system: S. aureus ATCC 13709(Meth^S); test: In vitro MIC, agar dilution; type: cell-based; details: for MIC: Staphylococcus aureus, ATCC13709, S. aureus ATCC 13709(Meth^S), read-out: minimum inhibitory concentration (MIC); for minimum inhibitory concentration (MIC): S. aureus ATCC 13709(Meth^S)
Summary of the method: as §1

P. aeruginosa ATCC 27853 = test: In vitro MIC, agar dilution; type: cell-based; details: for MIC: Pseudomonas aeruginosa, ATCC27853, read-out: minimum inhibitory concentration (MIC)
Summary of the method: as §1

[7] = test system: S. aureus Col(Meth^R)(lac^-); test: In vitro MIC, agar dilution; type: cell-based; details: for MIC: Staphylococcus aureus, read-out: minimum inhibitory concentration (MIC)
Summary of the method: (§2)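 Two-fold dilutions (128 to ≤0.25 μg/mL, in duplicate) were poured into Mueller-Hinton agar. Log-phase broth cultures were spot-inoculated at about 10^4 cfu per spot and incubated 35-36°C for 16-20 hours; the MIC was the lowest concentration inhibiting growth. Col is a high-level PBP2a producer; Col 8A is its isogenic PBP2a-lacking partner.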

[8] = test system: S. aureus Col8A(Meth^S)(lac^-); test: In vitro MIC, agar dilution; type: cell-based; details: S. aureus Col8A(Meth^S)(lac^-); for MIC: Staphylococcus aureus, read-out: minimum inhibitory concentration (MIC)
Summary of the method: as §2

[9] = test system: S. aureus strain ATCC 13709 (methicillin-susceptible); test: Murine model for lethal bacteremic peritonitis; type: in vivo, female Swiss-Webster mice; details: Staphylococcus aureus, ATCC13709, SC, 72 h
Summary of the method: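 Female Swiss-Webster mice were challenged IP with an LD100 inoculum in 7% hog gastric mucin, then given test drug subcutaneously in twofold increments (0.01–512 mg/kg) as two equal doses at challenge and 2 h later, 10 mice per group. Survival was scored at 72 h; PD50 (total mg/kg) was derived by probit.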

SMILES | MIC (E. coli ATCC 25992) [µg/mL] | MIC (S. aureus ATCC 29213) [µg/mL] | MIC [1] [µg/mL] | MIC (E. faecalis ATCC 29212) [µg/mL] | MIC (E. faecium VanA(Van^R)) [µg/mL] | MIC [2] [µg/mL] | MIC [3] [µg/mL] | MIC (E. faecium A491(Amp^R)) [µg/mL] | MIC (E. faecium ATCC 35667) [µg/mL] | MIC [4] [µg/mL] | MIC [5] [µg/mL] | MIC (E. faecalis VanB(Van^R)) [µg/mL] | MIC [6] [µg/mL] | MIC (P. aeruginosa ATCC 27853) [µg/mL] | MIC [7] [µg/mL] | MIC [8] [µg/mL] | further results
N=C(N)SCc1ncsc1SC1=C(C(=O)O)N2C(=O)[C@@H](NC(=O)Cc3ccccc3)[C@H]2SC1 [Cmpd 5, (7R)-7-[(phenylacetyl)amino]-3-(4-isothioureidomethylthiazol-5-ylthio)-3-cephem-4-carboxylate, trifluoroacetic acid salt] | > 32 | 0.13 | 16 | 2 | 32 | 0.25 | 16 | > 32 | 4 | 16 | 16 | 4 | ≤ 0.06 | > 32 | 8 | ≤ 0.06 | 
O=C(Cc1ccccc1)N[C@@H]1C(=O)N2C(C(=O)O)=C(Sc3snnc3CSC3CCNC3)CS[C@H]12 (stereo partly drawn) [Cmpd 6, (7R)-7-[(phenylacetyl)amino]-3-[4-(3-pyrrolidinothiomethyl)-1,2,3-thiadiazol-5-ylthio]-3-cephem-4-carboxylate, trifluoroacetic acid salt] | > 32 | 0.25 | 8 | 0.5 | 8 | 0.5 | 16 | > 32 | 2 | 8 | 8 | 8 | ≤ 0.06 | > 32 | 2 | 0.13 | 
N=C(N)SCc1ncsc1SC1=C(C(=O)O)N2C(=O)[C@@H](NC(=O)/C(=N\O)c3csc(N)n3)[C@H]2SC1 [Cmpd 7, (7R)-7-[(Z)-2-(aminothiazol-4-yl)-2-(hydroxyimino)acetamido]-3-(4-isothioureidomethylthiazol-5-ylthio)-3-cephem-4-carboxylate, trifluoroacetic acid salt] | 4 | 0.5 | 8 | 1 | 16 | 2 | 32 | > 32 | 4 | 8 | 8 | 2 | 0.5 | > 32 | 8 | 0.5 | 
NCCSCc1cnccc1SC1=C(C(=O)O)N2C(=O)[C@@H](NC(=O)Cc3ccccc3)[C@H]2SC1.O=C(O)C(F)(F)F [Cmpd 9, (7R)-7-[(phenylacetyl)amino]-3-(3-aminoethylthiomethylpyrid-4-ylthio)-3-cephem-4-carboxylate, trifluoroacetic acid salt] | > 32 | 0.25 | 4 | 1 | 4 | 1 | 16 | > 32 | 1 | 4 | 4 | 2 | ≤ 0.06 | > 32 | 1 | 0.13 | 
NCCSCc1cnccc1SC1=C(C(=O)O)N2C(=O)[C@@H](NC(=O)/C(=N\O)c3nc(N)sc3Br)[C@H]2SC1.O=C(O)C(F)(F)F [Cmpd 21, (7R)-7-[(Z)-2-(2-amino-5-bromothiazol-4-yl)-2-(hydroxyimino)acetamido]-3-(3-aminoethylthiomethylpyrid-4-ylthio)-3-cephem-4-carboxylate, trifluoroacetic acid salt] | 32 | 0.25 | 1 | 0.13 | 1 | 0.5 | 2 | 8 | 0.5 | 1 | 1 | 0.13 | 1 | > 32 | 1 | 0.25 | 
CNCCNCCSCc1nnsc1SC1=C(C(=O)O)N2C(=O)[C@@H](NC(=O)/C(=N\O)c3nc(N)sc3Cl)[C@H]2SC1.O=C(O)C(F)(F)F [Cmpd 22, (7R)-7-[(Z)-2-(2-amino-5-chlorothiazol-4-yl)-2-(hydroxyimino)acetamido]-3-[(methylaminoethylaminoethylthiomethyl)-1,2,3-thiadiazol-5-ylthio]-3-cephem-4-carboxylate, trifluoroacetic acid salt] |  |  |  |  |  |  |  |  |  |  |  |  |  |  |  |  | minimum inhibitory concentration (MIC) (E. coli ATCC 25992): 8 µg/mL; minimum inhibitory concentration (MIC) (S. aureus ATCC 29213): 0.25 µg/mL; minimum inhibitory concentration (MIC) [1]: 2 µg/mL; minimum inhibitory concentration (MIC) (E. faecalis ATCC 29212): 0.13 µg/mL; minimum inhibitory concentration (MIC) (E. faecium VanA(Van^R)): 2 µg/mL; minimum inhibitory concentration (MIC) [2]: 1 µg/mL; minimum inhibitory concentration (MIC) [3]: 2 µg/mL; minimum inhibitory concentration (MIC) (E. faecium A491(Amp^R)): 16 µg/mL; minimum inhibitory concentration (MIC) (E. faecium ATCC 35667): 1 µg/mL; minimum inhibitory concentration (MIC) [4]: 2 µg/mL; minimum inhibitory concentration (MIC) [5]: 2 µg/mL; minimum inhibitory concentration (MIC) (E. faecalis VanB(Van^R)): 0.5 µg/mL; minimum inhibitory concentration (MIC) [6]: 1 µg/mL; minimum inhibitory concentration (MIC) (P. aeruginosa ATCC 27853): > 32 µg/mL; minimum inhibitory concentration (MIC) [7]: 2 µg/mL; minimum inhibitory concentration (MIC) [8]: 0.5 µg/mL
N=CNCCSCc1cnccc1SC1=C(C(=O)O)N2C(=O)[C@@H](NC(=O)/C(=N\O)c3csc(N)n3)[C@H]2SC1.O=C(O)C(F)(F)F [Cmpd 25, (7R)-7-[(Z)-2-(aminothiazol-4-yl)-2-(hydroxyimino)acetamido]-3-(3-(N-formamidoyl)aminoethylthiomethylpyrid-4-ylthio)-3-cephem-4-carboxylate, trifluoroacetic acid salt] |  |  |  |  |  |  |  |  |  |  |  |  |  |  |  |  | minimum inhibitory concentration (MIC) (E. coli ATCC 25992): 4 µg/mL; minimum inhibitory concentration (MIC) (S. aureus ATCC 29213): 0.25 µg/mL; minimum inhibitory concentration (MIC) [1]: 2 µg/mL; minimum inhibitory concentration (MIC) (E. faecalis ATCC 29212): 0.13 µg/mL; minimum inhibitory concentration (MIC) (E. faecium VanA(Van^R)): 2 µg/mL; minimum inhibitory concentration (MIC) [2]: 0.25 µg/mL; minimum inhibitory concentration (MIC) [3]: 2 µg/mL; minimum inhibitory concentration (MIC) (E. faecium A491(Amp^R)): 32 µg/mL; minimum inhibitory concentration (MIC) (E. faecium ATCC 35667): 1 µg/mL; minimum inhibitory concentration (MIC) [4]: 1 µg/mL; minimum inhibitory concentration (MIC) [5]: 2 µg/mL; minimum inhibitory concentration (MIC) (E. faecalis VanB(Van^R)): 0.13 µg/mL; minimum inhibitory concentration (MIC) [6]: 0.25 µg/mL; minimum inhibitory concentration (MIC) (P. aeruginosa ATCC 27853): > 32 µg/mL; minimum inhibitory concentration (MIC) [7]: 1 µg/mL; minimum inhibitory concentration (MIC) [8]: 0.25 µg/mL
Nc1nc(/C(=N/O)C(=O)N[C@@H]2C(=O)N3C(C(=O)O)=C(Sc4ccncc4CSC[C@H](N)CO)CS[C@H]23)c(Cl)s1 [Cmpd 65, (7R)-7-[(Z)-2-(2-amino-5-chlorothiazol-4-yl)-2-(hydroxyimino)acetamido]-3-[3-(2R-2-amino-3-hydroxyprop-1-ylthiomethyl)pyrid-4-ylthio]-3-cephem-4-carboxylate, trifluoroacetic acid salt] | 16 | 0.5 | 4 | 0.25 | 2 | 1 | 4 | 16 |  | 4 | 4 | 0.5 | 0.5 | > 32 | 2 | 0.5 | responders at 0.3125 mg/kg ([9]; Dose 0.3125 mg/kg, read-out: Survivors): 10%; responders at 0.625 mg/kg ([9]; Dose 0.625 mg/kg, read-out: Survivors): 20%; responders at 1.25 mg/kg ([9]; Dose 1.25 mg/kg, read-out: Survivors (converted)): 10%; responders at 2.5 mg/kg ([9]; Dose 2.5 mg/kg, read-out: Survivors): 30%; responders at 5 mg/kg ([9]; Dose 5 mg/kg, read-out: Survivors): 80%; ED50 ([9]; two equal doses, IP challenge, read-out: ED50): 3.1 mg/kg
